# Data: patent publication US11331328B2, “Compositions and methods for inhibiting antiapoptotic Bcl-2 proteins as anti-aging agents” (priority 2014, dated 2022)
# Columns and labels:
# [1] = tested on: senescent WI38 cells induced by replicative exhaustion (Rep-SC); assay: Cell viability, LD50 in replicative senescent WI-38 cells; type: cell-based, human; details: Table 2
# Experimental: Human WI-38 fibroblasts (WI38 cells, #CCL-75™), human IMR-90 fibroblasts (IMR90 cells, #CCL-186™), human renal epithelial cells (REC cells, #PCS-400-012™) were obtained from ACTT (Manassas, Va., USA). Mouse embryonic fibroblasts (MEF) were isolated from mouse embryos as described^1. All cells were cultured in a complete medium (CM) (Dulbecco's Modified Eagle Medium supplemented with 10% fetal bovine serum [FBS], 100 U/ml penicillin, and 100 μg/ml streptomycin [all from Atlanta Biologicals, Norcross, Ga., and USA]) in a humidified incubator at 37° C. and 5% CO2. Low passages of WI-38 cells (<25), IMR-90 (<25), REC cells (<25) and MEF (<3) were used as non-senescent controls or for induction of senescence to avoid replicative senescence. To induce replicative senescence, WI-38 cells were subcultivated until cell division ceased after about 38 passages or 60 population doublings (FIG. 5)^2. […]
# Flow cytometry: Non-senescent and senescent cells were seeded into wells of 24- or 48-well at about 70% of confluence. […] Viable cells (PI^− cells) were numerated by flow cytometry at a constant flow rate and calculated as a percentage of control cells treated with vehicle using the formula: percentage of control=(Ndrug/NC)×100, where Ndrug and NC represent the absolute number of PI^− viable cells of drug-treated and vehicle-treated cells, respectively. […]
# [2] = tested on: IR-induced senescent WI-38 cells (SC); assay: Cell viability (PI flow cytometry), LD50 in IR-induced senescent WI-38 cells; type: cell-based, human
# Experimental: Mouse embryonic fibroblasts (MEF) were isolated from mouse embryos as described^1. All cells were cultured in a complete medium (CM) (Dulbecco's Modified Eagle Medium supplemented with 10% fetal bovine serum [FBS], 100 U/ml penicillin, and 100 μg/ml streptomycin [all from Atlanta Biologicals, Norcross, Ga., and USA]) in a humidified incubator at 37° C. and 5% CO2. Low passages of WI-38 cells (<25), IMR-90 (<25), REC cells (<25) and MEF (<3) were used as non-senescent controls or for induction of senescence to avoid replicative senescence. […] To induce senescence by expression of oncogenic Ras (Ras^V12), WI-38 cells were infected with the retroviruses pBabe-H-Ras or pBabe-puro (control) (Addgene, Cambridge, Mass., UAS)^2, 3. […] Senescent cells were maintained in culture for a few days, changing the culture medium every 3 days until use. For in vitro cell culture experiments, we usually repeated the experiments for at least three times to ensure the reproducibility of the data. In addition, the repeats of the experiments for three times will allow us to obtain 3 independent observations for statistical analysis.
# Flow cytometry: Non-senescent and senescent cells were seeded into wells of 24- or 48-well at about 70% of confluence. […] Both quiescent non-senescent cells and permanently growth arrested senescent cells were treated with vehicle (0.1% DMSO or PBS) or increasing concentrations of the compounds listed in Table 1 for various durations. […] After incubated with propidium iodide (PI 100 ng/ml) in PBS at room temperature for 1 min, cells were centrifuged at 1200 rpm for 6 min and then resuspended in PBS with 2% of FBS for analysis by a BD LSR II flow cytometer (BD Biosciences, San Jose, Calif., USA). Viable cells (PI^− cells) were numerated by flow cytometry at a constant flow rate and calculated as a percentage of control cells treated with vehicle using the formula: percentage of control=(Ndrug/NC)×100, where Ndrug and NC represent the absolute number of PI^− viable cells of drug-treated and vehicle-treated cells, respectively.
# MTT (3-[4,5-dimethylthiazol-2-yl]-2,5 diphenyl tetrazolium bromide) assay: Cells were harvested, washed and resuspended in CM and added to wells of 24- or 48-well plates as described above. […] After 4 h at 37° C., the formazan was solubilized by lysing the cells with 300 μl of DMSO. Absorbance of formazan was measured at 595 nm using a Microplate Reader (BioTek, Winooski, Vt., USA). Cell viability was calculated in the method as previously described^4.
# Trypan blue exclusion assay: Cells were harvested, washed and resuspended in CM and added to wells of a 6-well plate as described above. […] Living cells stained negative for trypan blue and were counted under light microscopy.
# Briefly, Probit (set as y) was determined by looking up their correspondence to the % responded in Finney's table. The log of the compound concentrations was used as x. By fitting a line of regression, we produce the formula y=ax+b.
structure (smiles),measurement,setting,value
"CC1(C)CCC(c2ccc(Cl)cc2)=C(CN2CCN(c3ccc(C(=O)NS(=O)(=O)c4ccc(N[C@H](CCN5CCOCC5)CSc5ccccc5)c(S(=O)(=O)C(F)(F)F)c4)cc3)CC2)C1 [ABT263, navitoclax]",LD50,[1],1.45 µM
same,IC50,"[2]; Homo sapiens, WI-38 fibroblasts, IR-induced senescent, LD50 by Probit Analysis, read-out: LD50 (μM) for senescent cells (SC)",0.61 µM
same,LD50,"[2]; Table 2, IR-SC WI38 cells",0.61 µM
same,viable cells by MTT assay and trypan blue exclusion test,"[2]; senescent WI-38, increasing concentrations, 72 h",can dose-dependently kill senescent WI-38 fibroblasts
same,SCs killed,"[2]; ~24 h, 1.25 μM ABT263, IR-SC WI-38",70-80%
